Assay [1] relates to summer wheat (TRZAS; cv. Triso). Briefly: Absolute action: reduction of damage by mesosulfuron-methyl on summer wheat, greenhouse post-emergence. It counts as in vivo. To be noted: for Absolute reduction in herbicide damage (damage without safener minus damage with safener): mesosulfuron-methyl 20 g/ha; for Herbicide damage with compound of the formula (I): then mesosulfuron-methyl 20 g/ha, visual 0-100% scale, 14-21 days after application. As for the experimental part: (§1) 2.1 Absolute Action of Selected Compounds of the Invention Using the Example of Reduction of Damage by Mesosulfuron-Methyl on Summer Wheat (TRZAS) The seeds of the crop plants to be treated are laid out in sandy loam in wood fiber or plastic pots (diameter ˜4 cm), covered with soil and grow in a greenhouse under good conditions for germination and growth. The trial plants were treated at the early leaf stage (BBCH10—BBCH12). In the course of this, the inventive compounds of the general formula (I) formulated in the form of wettable powders (WP) were sprayed onto the above-ground parts of the plants as an aqueous suspension with a water application rate corresponding to 800 l/ha with addition of wetting agent (e.g. 0.2% agrotin) in the specified dose. This was followed by the application of the herbicide. For this purpose, mesosulfuron-methyl, formulated in the form of water-dispersible granules (WG), was sprayed onto the above-ground parts of the plants in the form of an aqueous dispersion with a water application rate corresponding to 800 l/ha with addition of wetting agent (e.g. 0.2% agrotin) in a dose of 20 g/ha. The dose of the herbicide was chosen here such that it causes visually apparent damage (min. 30%, max. 75%) compared to untreated crop plants at the evaluation time on a control group of crop plants without safener treatment that were included in the same trial. After application, the plants were cultivated under good growth conditions in a greenhouse. The damage was visually assessed 14-21 days after application. The damage effect was assessed visually on a scale of 0-100% by comparison with untreated control plants, and averaged over 2-3 repeats per treatment. Examples: • 0%=no noticeable effect compared to the untreated plant • 20%=the treated plant population has 20% damage compared to the untreated control population (e.g. growth height, leaf damage, etc.) • 100%=treated plants completely damaged/killed.

The test system of assay [2] is summer barley (HORVS; cv. Montoya). Briefly: Absolute action: reduction of damage by mesosulfuron-methyl on summer barley, greenhouse post-emergence. It is filed as in vivo. The settings on record: for Absolute reduction in damage (difference): mesosulfuron-methyl 20 g/ha, damage without minus with safener; for Herbicide damage with compound of the formula (I) (%): then mesosulfuron-methyl 20 g/ha, visual 0-100% scale, 14-21 days after application. The protocol: as §1, with “2.2 Absolute Action” for “2.1 Absolute Action”, “on Summer Barley (HORVS) The seeds” for “on Summer Wheat (TRZAS) The seeds”, “treated are aid out in” for “treated are laid out in”, “soil and grown in a” for “soil and grow in a”, “leaf stage (BBCE10-BBCH12). In the” for “leaf stage (BBCH10—BBCH12). In the”, “control population (e.g.: growth height,” for “control population (e.g. growth height,”

Each structure is given as a SMILES string.

As for `CCOC(=O)COc1nc(-c2ccccc2)n(-c2ccc(F)cc2)n1` [I.2-4], in assay [1] (safener 1000 g/ha), the “Absolute reduction in herbicide damage (damage without safener minus damage with safener)” value was 20% and the “Herbicide damage with compound of the formula (I)” value worked out at 30%.

Take `CCOC(=O)COc1nc(-c2ccccc2)n(-c2ccc(F)cc2F)n1` [I.2-38]: in assay [1] (safener 1000 g/ha), the “Absolute reduction in herbicide damage (damage without safener minus damage with safener)” value was found to be 20% and the “Herbicide damage with compound of the formula (I)” value amounted to 30%.

Take `O=C(O)COc1nc(-c2ccccc2)n(-c2ccc(F)cc2)n1` [I.3-4]: in assay [1] (safener 250 g/ha), the “Absolute reduction in herbicide damage (damage without safener minus damage with safener)” value worked out at 20% and the “Herbicide damage with compound of the formula (I)” value is recorded as 30%. Besides, in assay [1] (safener 1000 g/ha), the “Absolute reduction in herbicide damage (damage without safener minus damage with safener)” value was 27% and the “Herbicide damage with compound of the formula (I)” value is listed as 23%.

Turning to `O=C(O)COc1nc(-c2ccccc2)n(-c2ccc(Cl)cc2)n1` [I.3-7], in assay [1] (safener 250 g/ha), the “Absolute reduction in herbicide damage (damage without safener minus damage with safener)” value stood at 23% and the “Herbicide damage with compound of the formula (I)” value is recorded as 20%. In addition, in assay [1] (safener 1000 g/ha), the “Absolute reduction in herbicide damage (damage without safener minus damage with safener)” value was 33% and the “Herbicide damage with compound of the formula (I)” value was 10%. In assay [2] (safener 250 g a.i./ha), the “Absolute reduction in damage (difference)” value was determined as 20% and the “Herbicide damage with compound of the formula (I) (%)” value (shortened to “Herbicide damage with compound … (%)”) is 40%.

With `COC(=O)COc1nc(-c2ccccc2F)n(-c2ccc(Cl)cc2Cl)n1` [I.4-32], the “Absolute reduction in herbicide damage (damage without safener minus damage with safener)” value in assay [1] (safener 125 g a.i./ha) turned out to be 34%; in assay [1] (safener 500 g a.i./ha), 47%. For the same compound, the “Herbicide damage with compound of the formula (I)” value in assay [1] (safener 125 g a.i./ha) is reported as 23%; in assay [1] (safener 500 g a.i./ha) it was 10%. The “Absolute reduction in damage (difference)” value in assay [2] (safener 125 g a.i./ha) is on record as 20%; in assay [2] (safener 500 g a.i./ha), 44%. In addition, the “Herbicide damage with compound … (%)” value in assay [2] (safener 125 g a.i./ha) came out at 37%; in assay [2] (safener 500 g a.i./ha), 13%.

On to `CCOC(=O)COc1nc(-c2ccccc2F)n(-c2ccc(Cl)cc2Cl)n1` [I.5-32], for which, in assay [1] (safener 1000 g/ha), the “Absolute reduction in herbicide damage (damage without safener minus damage with safener)” value came to 27% and the “Herbicide damage with compound of the formula (I)” value was found to be 30%.

Turning to `O=C(O)COc1nc(-c2ccccc2F)n(-c2ccc(Cl)cc2Cl)n1` [I.6-32], in assay [2] (safener 250 g a.i./ha), the “Absolute reduction in damage (difference)” value came to 20% and the “Herbicide damage with compound … (%)” value turned out to be 40%.

Regarding `CCOC(=O)COc1nc(-c2ccc(F)cc2)n(-c2ccc(F)cc2F)n1` [I.11-38], in assay [1] (safener dose not given), the “Absolute reduction in herbicide damage (damage without safener minus damage with safener)” value is listed as 20% and the “Herbicide damage with compound of the formula (I)” value was 30%.

Regarding `CCOC(=O)COc1nc(-c2ccc(Cl)cc2)n(-c2ccccc2)n1` [I.20-1], in assay [1] (safener 250 g/ha), the “Absolute reduction in herbicide damage (damage without safener minus damage with safener)” value is recorded as 30% and the “Herbicide damage with compound of the formula (I)” value amounted to 13%. Moreover, in assay [1] (safener 1000 g/ha), the “Absolute reduction in herbicide damage (damage without safener minus damage with safener)” value is reported as 36% and the “Herbicide damage with compound of the formula (I)” value was found to be 7%.

On to `COc1ccccc1-c1nc(OCC(=O)O)nn1-c1ccccc1F` [I.24-2], for which, in assay [1] (safener 500 g a.i./ha), the “Absolute reduction in herbicide damage (damage without safener minus damage with safener)” value stood at 20% and the “Herbicide damage with compound of the formula (I)” value is given as 30%.

`CCOC(=O)COc1nc(-c2ccc(F)cc2F)n(-c2ccc(F)cc2F)n1` [I.41-38]: in assay [2] (safener 250 g a.i./ha), the “Absolute reduction in damage (difference)” value was 23% and the “Herbicide damage with compound … (%)” value is on record as 30%. For the same compound, in assay [2] (safener 1000 g a.i./ha), the “Absolute reduction in damage (difference)” value was 23% and the “Herbicide damage with compound … (%)” value is on record as 30%.

For the compound `O=C(O)COc1nc(-c2ccc(Cl)cc2Cl)n(-c2ccccc2F)n1` [I.45-2], in assay [1] (safener 500 g a.i./ha), the “Absolute reduction in herbicide damage (damage without safener minus damage with safener)” value came out at 20% and the “Herbicide damage with compound of the formula (I)” value came to 30%.

For `O=C(O)COc1nc(-c2ccc(Cl)cc2Cl)n(-c2ccc(Cl)cc2Cl)n1` [I.45-32], in assay [1] (safener 125 g a.i./ha), the “Absolute reduction in herbicide damage (damage without safener minus damage with safener)” value is reported as 23% and the “Herbicide damage with compound of the formula (I)” value amounted to 40%. In assay [1] (safener 500 g a.i./ha), the “Absolute reduction in herbicide damage (damage without safener minus damage with safener)” value came out at 30% and the “Herbicide damage with compound of the formula (I)” value stood at 33%.

The values are drawn from patent publication US12583826B2, “[(1,5-diphenyl-1H-1,2,4-triazol-3-yl)oxy]acetic acid derivatives and salts thereof, crop protection compositions comprising them, methods for producing them and use thereof as safeners” (Bayer Aktiengesellschaft, priority 2019, dated 2026).
